Source: US9863956B2, “Differentiation of isobaric amino acids and other species” (Agency for Science, Technology and Research, priority 2009, dated 2018)
Where no end group is shown, it is not given here.

Assays:
bCAII = bCAII (Bos taurus, UniProt P00921); assay: SPR affinity measurement (Biacore 3000) of peptide on immobilized bCAII; type: binding, bovine
Procedure: Affinity measurements were performed using a Biacore 3000 system (GE Heathcare) equipped with research grade CM5 sensor chips (GE Healthcare). The CM5 sensor chip was preconditioned after docking and priming the instrument with HBS-EP (GE Heathcare) buffer. Flow cell 1 (or 3) was used as a reference to subtract nonspecific binding, drift, and bulk refractive index. Using a flow rate of 20 microliters/min, the sensor chip's four flow cells were activated at 25° C. with a 7 min injection of amine-coupling kit (GE Healthcare) (1:1 mixture of 0.4 M EDC and 0.1 M NHS). To create a bCAII surface, 1 mg of bCAII was dissolved in 1 mL of 10 mM sodium acetate (pH 5.0) and injected across flow cell 2 only. Approximately 1000 response units (RU) of bCAII were immobilized onto this surface. Finally, 1.0 M ethanolamine (pH 8.5) was injected across the four flow cells for 4 min to deactivate the surfaces. After bCAII immobilization, the instrument was primed three times using running buffer (1×PBS+3% DMSO). HIRYKR (SEQ ID NO: 2) peptide (26.13 micrograms) was dissolved in 18 microliters DMSO and diluted with HBS-EP buffer to produce a 50 micromolar peptide stock solution. The peptide stock solution was serially diluted by a factor of 2 to a concentration of 390 nM. […]

[1] = biological target: bovine carbonic anhydrase (bCAII) (Bos taurus, UniProt P00921); assay: OBOC hexamer peptide library screening with Alexa Fluor 647 labeled bCAII, COPAS Plus bead sorting; type: binding; details: 50 nM dye labeled bCAII, 15 hr at 25° C.; on-bead peptide
bovine carbonic anhydrase (bCAII), sequence (P00921 whole entry): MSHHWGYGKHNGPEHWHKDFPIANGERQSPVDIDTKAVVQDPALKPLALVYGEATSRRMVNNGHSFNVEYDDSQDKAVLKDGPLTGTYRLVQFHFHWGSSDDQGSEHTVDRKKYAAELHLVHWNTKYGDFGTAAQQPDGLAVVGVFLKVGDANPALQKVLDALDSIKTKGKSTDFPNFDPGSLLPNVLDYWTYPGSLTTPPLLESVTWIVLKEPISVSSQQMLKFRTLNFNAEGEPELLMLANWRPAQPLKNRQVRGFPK
Procedure: Alexa Fluor® 647 protein labeling kit (A20173, Invitrogen) was chosen as the reactive dye for labeling bovine carbonic anhydrase (bCAII) following the supplier's protocol. Briefly, 2 mg/mL of bCAII in 0.1 M sodium bicarbonate (pH ˜8.3) was transferred 0.5 mL of bCAII solution into the vial of the reactive dye, and the vial was capped and inverted several times to dissolve the dye completely. The reaction mixture was stirred for 1 hr at room temperature under dark conditions. The Alexa Fluro® 647 labeled bCAII (bCAII-A647) was purified from the mixture using the size exclusion purification resin in the kit. Purified and labeled bCAII-A647 was characterized by NanoDrop (Thermo Scientific) and gel documentation (Typhoon) after SDS-PAGE. […]
Hit beads were sorted into cone-shaped wells of a 96 well plate using a COPAS Plus. […] The gating region was defined for beads based on their time-of-flight (TOF) and red fluorescence, and the sorting region was chosen for selecting beads based on their time-of-flight (TOF) and uniformity red fluorescence after incubation with bCAII-A647. […] The TOF, red fluorescence, and red fluorescence peak height of the beads were detected using a red diode laser (λ=635 nm). Due to the auto-fluorescence of the beads, the argon ion laser was intentionally turned off to minimize bleed-through effect. […]

bCAII, sequence (P00921 whole entry): as above

| Substance | dissociation constant (KD) (bCAII; 1:1 Langmuir binding fit, 25° C., peptide 50 micromolar to 390 nM) | binding affinity to the protein bCAII (bCAII; conclusion in words) | hit in library screening against bCAII (bead fluorescence) [1] |
| --- | --- | --- | --- |
| HIRYKR [hit hexamer peptide from OBOC library screened against bCAII, re-synthesized from Fmoc D-amino acids with a carboxamide C-terminus] | micromolar range | significant binding affinity | hit peptide from the brightest bead |
| IQHKRF (not fully specified (residues 1, 2, 3, 4, 5, 6, C-terminus); also: D-amino acids, which residues not given here) |  |  | hit peptide |
